Experimental findings from patent publication US11040981B2, “Pyrrolotriazine compounds and methods of inhibiting TAM kinases” (Syros Pharmaceuticals, Inc., priority 2017, dated 2021) are described below.

In one test the target is T1, MERTK (Homo sapiens, UniProt Q12866).
T1 sequence (Q12866 21-999): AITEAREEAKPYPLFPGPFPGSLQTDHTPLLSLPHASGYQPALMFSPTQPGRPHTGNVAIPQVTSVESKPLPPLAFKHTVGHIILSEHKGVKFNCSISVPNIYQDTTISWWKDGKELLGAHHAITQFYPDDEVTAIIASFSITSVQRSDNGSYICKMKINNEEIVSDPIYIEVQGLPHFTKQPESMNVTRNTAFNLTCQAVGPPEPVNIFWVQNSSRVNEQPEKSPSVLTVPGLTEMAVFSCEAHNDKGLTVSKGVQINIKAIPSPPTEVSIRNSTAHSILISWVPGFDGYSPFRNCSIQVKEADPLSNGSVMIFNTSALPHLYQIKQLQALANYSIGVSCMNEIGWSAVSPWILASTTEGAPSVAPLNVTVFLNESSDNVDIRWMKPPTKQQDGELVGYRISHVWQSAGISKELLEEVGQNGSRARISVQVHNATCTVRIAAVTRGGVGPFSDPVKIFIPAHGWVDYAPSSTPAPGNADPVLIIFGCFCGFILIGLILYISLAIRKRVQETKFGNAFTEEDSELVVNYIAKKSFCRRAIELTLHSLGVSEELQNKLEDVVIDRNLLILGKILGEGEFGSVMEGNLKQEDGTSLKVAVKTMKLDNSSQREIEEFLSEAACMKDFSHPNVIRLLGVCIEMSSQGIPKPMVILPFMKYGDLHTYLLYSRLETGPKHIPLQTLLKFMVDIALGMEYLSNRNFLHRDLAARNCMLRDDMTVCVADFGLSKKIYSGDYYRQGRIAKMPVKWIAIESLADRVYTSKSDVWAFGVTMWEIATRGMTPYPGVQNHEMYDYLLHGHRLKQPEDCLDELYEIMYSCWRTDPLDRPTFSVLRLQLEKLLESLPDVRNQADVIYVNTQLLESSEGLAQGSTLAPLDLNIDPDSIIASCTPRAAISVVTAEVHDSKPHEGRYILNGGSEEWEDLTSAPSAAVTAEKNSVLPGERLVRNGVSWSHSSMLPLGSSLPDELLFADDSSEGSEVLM
The test is described as follows: TR-FRET kinase activity assay, MERTK. The format is biochemical. The following applies: for IC50: TR-FRET activity assay, ATP at Km, 60 minutes, read-out: Mer IC50; for FLT3/Mer ratio (FLT3 IC50/Mer IC50): ratio of Mer to FLT3: FLT3 IC50/Mer IC50. A digest of the protocol: (§1)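 Each kinase phosphorylated a fluorescent-labelled tyrosine peptide in 50 mM HEPES pH 7.5, 10 mM MgCl2, 1 mM EGTA, 0.01% Brij 35, 1 mM DTT at RT, with ATP at Km for that enzyme. After 60 min, EDTA quench and Eu-anti-phosphotyrosine antibody (30 min, dark); IC50 from TR-FRET decrease.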

The next test deals with T2, FLT3 (Homo sapiens, UniProt P36888).
T2 sequence (P36888 27-993): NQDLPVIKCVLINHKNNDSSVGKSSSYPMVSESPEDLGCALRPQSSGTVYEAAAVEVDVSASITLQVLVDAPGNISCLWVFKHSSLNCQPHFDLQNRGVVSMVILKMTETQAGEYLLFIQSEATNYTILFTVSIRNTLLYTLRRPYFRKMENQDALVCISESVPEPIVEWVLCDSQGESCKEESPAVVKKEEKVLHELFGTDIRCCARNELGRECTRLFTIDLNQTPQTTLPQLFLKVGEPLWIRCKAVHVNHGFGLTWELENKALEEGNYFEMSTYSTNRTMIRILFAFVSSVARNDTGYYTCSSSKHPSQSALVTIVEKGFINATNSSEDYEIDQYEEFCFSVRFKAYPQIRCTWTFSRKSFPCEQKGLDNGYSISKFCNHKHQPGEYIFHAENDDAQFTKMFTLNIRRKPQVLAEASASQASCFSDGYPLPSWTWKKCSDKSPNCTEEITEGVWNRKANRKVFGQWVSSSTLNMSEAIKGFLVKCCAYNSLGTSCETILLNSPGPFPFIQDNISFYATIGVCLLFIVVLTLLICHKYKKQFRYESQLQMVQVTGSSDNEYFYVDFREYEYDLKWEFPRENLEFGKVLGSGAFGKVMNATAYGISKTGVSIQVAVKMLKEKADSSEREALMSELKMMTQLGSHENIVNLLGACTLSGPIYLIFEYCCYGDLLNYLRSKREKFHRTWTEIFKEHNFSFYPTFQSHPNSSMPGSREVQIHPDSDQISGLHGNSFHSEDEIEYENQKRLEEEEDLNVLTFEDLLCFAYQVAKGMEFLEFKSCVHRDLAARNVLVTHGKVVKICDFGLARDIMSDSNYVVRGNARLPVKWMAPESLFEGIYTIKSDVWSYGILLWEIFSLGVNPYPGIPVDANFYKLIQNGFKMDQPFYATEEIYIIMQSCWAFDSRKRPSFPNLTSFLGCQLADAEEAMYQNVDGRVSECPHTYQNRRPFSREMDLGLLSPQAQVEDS
The test is described as follows: TR-FRET kinase activity assay, FLT3. The following applies: ATP at Km, 60 minutes. It is filed as biochemical. A digest of the protocol:
as §1
(Time-resolved FRET reads energy transfer from a long-lived donor to a nearby acceptor.)

Structures are written as SMILES. Bounds are passed on as bounds.

By IC50 is commonly meant the concentration at which inhibition is half-maximal. As for `COCC(C)Nc1ncc2c(N3CCOCC3=O)cc(C3CCC(O)CC3)n2n1` (stereo not drawn) [Compound 192], on MERTK, the IC50 was 100 to 1000 nM; the “FLT3/Mer ratio (FLT3 IC50/Mer IC50)” value was “++ (“++” represents a ratio of between 10 and 100)”. Also, the IC50 on FLT3 fell in the range of 1000 to 10000 nM.

Turning to `C[C@@H](COC(F)F)Nc1ncc2c(-c3ccc(CN4CCOCC4)cc3)cc([C@H]3CC[C@H](O)CC3)n2n1` [Compound 188], at MERTK, the IC50 is not above 100 nM and the “FLT3/Mer ratio (FLT3 IC50/Mer IC50)” value was “+++ (“+++” represents a ratio of >100)”. The same compound showed an IC50 against FLT3 not above 100 nM.

Regarding `COC[C@H](C)Nc1ncc2c(-c3ccc(C(=O)N4CCOCC4)cc3)cc([C@H]3CC[C@H](O)CC3)n2n1` [Compound 187, (4-(7-((trans)-4-hydroxycyclohexyl)-2-(((S)-1-methoxypropan-2-yl)amino)pyrrolo[2,1-f][1,2,4]triazin-5-yl)phenyl)(morpholino)methanone], on MERTK, the IC50 is not above 100 nM and the “FLT3/Mer ratio (FLT3 IC50/Mer IC50)” value was “+++ (“+++” represents a ratio of >100)”. On FLT3, this compound registered an IC50 of 100 to 1000 nM.

Take `COCC(C)Nc1ncc2c(C3CC4CCC(C3)N4C)cc(C3CCC(O)CC3)n2n1` (stereo not drawn) [Compound 191]: the IC50 was not above 100 nM at MERTK and 1000 to 10000 nM on FLT3. Moreover, the “FLT3/Mer ratio (FLT3 IC50/Mer IC50)” value at MERTK was “+++ (“+++” represents a ratio of >100)”.

On to `Cc1cc(-c2cc(C3CCC(O)CC3)n3nc(NC(C)CC4CC4)ncc23)ccn1` (stereo not drawn) [Compound 190], for which, at MERTK, the IC50 was not above 100 nM and the “FLT3/Mer ratio (FLT3 IC50/Mer IC50)” value was “+++ (“+++” represents a ratio of >100)”. At FLT3, the IC50 is not above 100 nM.

In the case of `CCCCC[C@H](C)Nc1ncc2c(-c3ccc(S(=O)(=O)N4CCOCC4)cc3)cc([C@H]3CC[C@@H](O)CC3)n2n1` [Compound 103, (1R,4s)-4-(2-((S)-heptan-2-ylamino)-5-(4-(morpholinosulfonyl)phenyl)pyrrolo[2,1-f][1,2,4]triazin-7-yl)cyclohexanol], the IC50 at MERTK is not above 100 nM; against FLT3 it was 100 to 1000 nM. Also, at MERTK, the “FLT3/Mer ratio (FLT3 IC50/Mer IC50)” value was “++ (“++” represents a ratio of between 10 and 100)”.

As to `COC[C@H](C)Nc1ncc2c(-c3cn(C)cn3)cc([C@H]3CC[C@H](O)CC3)n2n1` [Compound 186], the IC50 at MERTK is not above 100 nM; against FLT3, 100 to 1000 nM. Moreover, the “FLT3/Mer ratio (FLT3 IC50/Mer IC50)” value at MERTK was “++ (“++” represents a ratio of between 10 and 100)”.

On to `CC(CC1CC1)Nc1ncc2c(-c3ccc(CN4CCOCC4)cc3)cc(C3CCC(O)CC3)n2n1` (stereo not drawn) [Compound 189], for which, on MERTK, the IC50 was not above 100 nM; the “FLT3/Mer ratio (FLT3 IC50/Mer IC50)” value was “++ (“++” represents a ratio of between 10 and 100)”. At FLT3, this compound displayed an IC50 not above 100 nM.

In the case of `COCC(C)Nc1ncc2c(-c3ccc(C4(N5CCN(C)CC5)CC4)cc3)cc(C3CCC(O)CC3)n2n1` (stereo not drawn) [Compound 185], at MERTK, the IC50 was not above 100 nM; the “FLT3/Mer ratio (FLT3 IC50/Mer IC50)” value was “++ (“++” represents a ratio of between 10 and 100)”. The IC50 at FLT3 is 100 to 1000 nM.
